For this assay, the target named is CDK9/cyclin T1 (Homo sapiens, UniProt P50750). The experiment in a line: CDK9/cyclin T1 kinase inhibition, LANCE assay. It counts as biochemical. Particulars: reaction time 60 minutes, 10 μM ATP, 10-dose IC50, compounds 35-126 (127-208 listed, method not stated), read-out: CDK9/cyclin T1 Potency Grade. As for the experimental part:
Exemplary compounds of the invention (35-126) were tested for inhibition of CDK9/cyclin T1 kinase. Using a LANCE assay (reaction time 60 minutes), the compounds were tested in 10-dose IC50 duplicate mode with a 3-fold serial dilution starting at 4.3 μM. […] Reactions were carried out at 10 μM ATP. Data was normalized to positive and negative controls and curve fits were analyzed with XLFIT5 as % inhibition vs. log [compound concentration] using a 4-parameter logistic model205. Fit=(A+((B−A)/(1+((C/x)^D)))); Res =(y-fit).
Background: Time-resolved FRET reads energy transfer from a long-lived donor to a nearby acceptor.

The structures appear in SMILES notation.

Chain of CDK9/cyclin T1 (P50750 whole entry): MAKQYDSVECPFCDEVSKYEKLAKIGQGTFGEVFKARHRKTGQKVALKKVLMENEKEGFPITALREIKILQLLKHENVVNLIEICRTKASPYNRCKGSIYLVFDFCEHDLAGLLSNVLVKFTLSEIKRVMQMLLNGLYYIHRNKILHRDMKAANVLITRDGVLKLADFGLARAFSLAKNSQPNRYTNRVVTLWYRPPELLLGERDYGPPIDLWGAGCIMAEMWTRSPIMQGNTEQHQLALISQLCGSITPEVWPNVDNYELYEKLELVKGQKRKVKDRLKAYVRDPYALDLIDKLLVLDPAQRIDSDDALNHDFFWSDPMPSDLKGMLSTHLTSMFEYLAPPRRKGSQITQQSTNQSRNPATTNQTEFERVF
Chain of CDK9/cyclin T1 (O60563 whole entry partner): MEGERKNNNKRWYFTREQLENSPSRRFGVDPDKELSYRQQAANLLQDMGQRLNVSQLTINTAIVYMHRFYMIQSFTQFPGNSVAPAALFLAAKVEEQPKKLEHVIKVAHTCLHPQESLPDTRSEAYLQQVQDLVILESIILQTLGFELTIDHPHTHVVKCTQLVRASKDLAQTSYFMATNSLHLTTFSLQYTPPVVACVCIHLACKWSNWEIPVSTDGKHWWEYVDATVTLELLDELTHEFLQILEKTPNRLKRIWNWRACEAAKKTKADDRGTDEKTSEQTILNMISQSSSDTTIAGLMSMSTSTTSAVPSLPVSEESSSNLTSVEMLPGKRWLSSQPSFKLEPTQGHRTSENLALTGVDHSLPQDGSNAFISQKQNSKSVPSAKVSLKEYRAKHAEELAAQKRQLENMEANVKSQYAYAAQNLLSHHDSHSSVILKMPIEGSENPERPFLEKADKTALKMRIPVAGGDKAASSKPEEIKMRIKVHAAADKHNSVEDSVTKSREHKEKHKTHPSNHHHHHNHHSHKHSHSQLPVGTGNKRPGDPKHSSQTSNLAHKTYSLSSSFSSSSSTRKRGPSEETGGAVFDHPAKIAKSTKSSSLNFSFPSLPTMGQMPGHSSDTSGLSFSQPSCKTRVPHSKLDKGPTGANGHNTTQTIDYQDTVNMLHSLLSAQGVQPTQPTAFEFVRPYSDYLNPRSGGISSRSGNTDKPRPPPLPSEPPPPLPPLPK

In the case of `CC(C)c1cc(N[C@H]2CC[C@H](N)C2)n2ncc(C#N)c2n1` [Compound 155], the IC50 was in the range of 1 to 500 nM. The result for `CC1(C)CC1c1cc(N[C@H]2CC[C@H](N)C2)n2nccc2n1` (stereo partly drawn) [Compound 117] reads 1 to 500 nM; that for `CC(C)c1cc(N[C@@H]2CC[C@@H](N(C)C=O)C2)n2nccc2n1` [Compound 146], 1 to 500 nM. With `Cc1cccc(-c2cc(N[C@H]3CC[C@H](N)C3)n3nccc3n2)c1` [Compound 164], the IC50 lay in the range of 1 to 500 nM. The result for `O=C(N[C@H]1CC[C@H](Nc2cc(C3CC3)nc3ccnn23)C1)OCc1ccccc1` [Compound 84] reads greater than 1000 nM; that for `CCC(CC)c1cc(N[C@H]2CC[C@H](NC(=O)c3cnc(C)cn3)C2)n2nccc2n1` [Compound 148], 1 to 500 nM.

Take `CC(C)c1cccc(-c2cc(N[C@H]3CC[C@H](N)C3)n3nccc3n2)c1` [Compound 121]: the IC50 lay in the range of 1 to 500 nM. The result for `O=CN[C@@H]1CC[C@@H](Nc2cc(C3CC3)nc3ccnn23)C1` [Compound 51] reads 1 to 500 nM; that for `COCCN[C@@H]1CC[C@@H](Nc2cc(C(C)C)nc3ccnn23)C1` [Compound 59], 1 to 500 nM; that for `COCCNc1cc(N[C@H]2CC[C@H](N)C2)n2nccc2n1` [Compound 179], 501 to 1000 nM. The result for `CC(C)c1ccc(-c2cc(N[C@H]3CC[C@H](N)C3)n3nccc3n2)cc1` [Compound 108] reads 1 to 500 nM; that for `CC(C)c1cc(N[C@@H]2CC[C@@H](NC=O)C2)n2nccc2n1` [Compound 46], 1 to 500 nM. Take `N[C@H]1CC[C@H](Nc2cc(C3CCOC3)nc3ccnn23)C1` (stereo partly drawn) [Compound 124]: the IC50 was in the range of 501 to 1000 nM.

In the case of `COc1cc(C)cc(-c2cc(N[C@H]3CC[C@H](N)C3)n3nccc3n2)c1` [Compound 161], the IC50 is 1 to 500 nM. The result for `CC(=O)Nc1cc(N[C@@H]2CC[C@@H](N)C2)n2nccc2n1` [Compound 128] reads greater than 1000 nM; that for `CC(C)c1cc(N[C@@H]2CC[C@@H](NC(=O)OCc3ccccc3)C2)n2ncc(Cl)c2n1` [Compound 158], 1 to 500 nM; that for `CC1(c2cc(N[C@H]3CC[C@H](N)C3)n3nccc3n2)CC1` [Compound 123], 1 to 500 nM. As for `N[C@H]1CC[C@H](Nc2cc(C3=CCCCC3)nc3ccnn23)C1` [Compound 200], the IC50 fell in the range of 1 to 500 nM.

In the case of `CCC(CC)c1cc(N[C@H]2CC[C@H](N(C)CCOC)C2)n2nccc2n1` [Compound 153], the IC50 is 1 to 500 nM. The figure for `Cn1cncc1-c1cc(N[C@H]2CC[C@H](N)C2)n2nccc2n1` [Compound 174] is 1 to 500 nM; for `COc1cc(N[C@@H]2CC[C@@H](N)C2)n2nccc2n1` [Compound 77] it is 501 to 1000 nM. For `N[C@H]1CC[C@H](Nc2cc(C#CC3CCCCC3)nc3ccnn23)C1` [Compound 119], the IC50 lay within 1 to 500 nM.

For `N[C@H]1CC[C@H](Nc2cc(-c3cccc(Cl)c3)nc3ccnn23)C1` [Compound 75], the IC50 fell in the range of 1 to 500 nM. Take `N[C@H]1CC[C@H](Nc2cc(-c3ccc4c(c3)OCO4)nc3ccnn23)C1` [Compound 152]: the IC50 was 1 to 500 nM. The result for `N[C@H]1CC[C@H](Nc2cc(C3CCC(F)(F)CC3)nc3ccnn23)C1` [Compound 125] reads 1 to 500 nM; that for `CN(CCO)c1cc(N[C@H]2CC[C@H](N)C2)n2nccc2n1` [Compound 90], 1 to 500 nM. The figure for `CC(C)c1cc(N[C@@H]2CCN(C)C2)n2nccc2n1` [Compound 135] is greater than 1000 nM. On to `CCNc1cc(N[C@H]2CC[C@H](N)C2)n2nccc2n1` [Compound 98], for which the IC50 was in the range of 1 to 500 nM. The figure for `Cc1cnn2c(N[C@@H]3CC[C@@H](NC(=O)OC(C)C)C3)cc(C(C)C)nc12` [Compound 85] is 1 to 500 nM; for `CN/C(=N/C#N)N[C@@H]1CC[C@@H](Nc2cc(C(C)C)nc3ccnn23)C1` [Compound 63] it is 1 to 500 nM. The figure for `CC1CCC(c2cc(N[C@H]3CC[C@H](N)C3)n3nccc3n2)CC1` (stereo partly drawn) [Compound 122] is 1 to 500 nM.

For `CCC(C)c1cc(N[C@@H]2CC[C@@H](NC=O)C2)n2nccc2n1` (stereo partly drawn) [Compound 143], the IC50 is 1 to 500 nM. On to `CC(C)c1cc(N[C@@H]2CC[C@@H](NC(=O)OCc3ccccc3)C2)n2ncc(Cl)c2n1` [Compound 67], for which the IC50 is 1 to 500 nM. The figure for `CCNc1cc(N[C@H]2CC[C@H](N)C2)n2nccc2n1` [Compound 189] is 1 to 500 nM; for `O=CN[C@@H]1CC[C@@H](Nc2cc(C3CC3)nc3ccnn23)C1` [Compound 142] it is 1 to 500 nM. The figure for `N[C@H]1CC[C@H](Nc2cc(Nc3ccc4ccccc4c3)nc3ccnn23)C1` [Compound 71] is 1 to 500 nM; for `O=C(N[C@H]1CC[C@H](Nc2cc(C3CC3)nc3ccnn23)C1)OCc1ccccc1` [Compound 175] it is greater than 1000 nM; for `N[C@H]1CC[C@H](Nc2cc(Nc3ccc4ccccc4c3)nc3ccnn23)C1` [Compound 162] it is 1 to 500 nM. Regarding `CCC(CC)c1cc(N[C@H]2CC[C@H](Nc3ccccn3)C2)n2nccc2n1` [Compound 149], the IC50 fell in the range of 1 to 500 nM. With `Cc1cnn2c(N[C@@H]3CC[C@@H](NC(=O)OC(C)C)C3)cc(C(C)C)nc12` [Compound 176], the IC50 is 1 to 500 nM. Turning to `COCCN[C@@H]1CC[C@@H](Nc2cc(C(C)C)nc3ccnn23)C1` [Compound 150], the IC50 is 1 to 500 nM.

With `CC(C)c1cc(N[C@@H]2CC[C@@H](NC(=O)OCc3ccccc3)C2)n2nccc2n1` [Compound 50], the IC50 was 1 to 500 nM. The result for `CN(Cc1ccccc1)c1cc(N[C@H]2CC[C@H](N)C2)n2nccc2n1` [Compound 188] reads 1 to 500 nM; that for `Cc1cnn2c(N[C@@H]3CC[C@@H](NC(=O)OCc4ccccc4)C3)cc(C(C)C)nc12` [Compound 87], 1 to 500 nM; that for `N[C@H]1CC[C@H](Nc2cc(N3CCCCC3)nc3ccnn23)C1` [Compound 156], 1 to 500 nM. The figure for `CC(C)N(C)c1cc(N[C@H]2CC[C@H](N)C2)n2nccc2n1` [Compound 86] is 1 to 500 nM. The figure for `Cc1cc(C)cc(-c2cc(N[C@H]3CC[C@H](N)C3)n3nccc3n2)c1` [Compound 105] is 1 to 500 nM; for `Cc1cnn2c(N[C@H]3CC[C@H](N)C3)cc(CC(C)C)nc12` [Compound 184] it is 1 to 500 nM; for `CC(C)N(C)c1cc(N[C@H]2CC[C@H](N)C2)n2nccc2n1` [Compound 177] it is 1 to 500 nM. For `CC(C)(C#N)c1ccc(-c2cc(N[C@H]3CC[C@H](N)C3)n3nccc3n2)cc1` [Compound 113], the IC50 was 1 to 500 nM. The result for `CC(C)Cc1cc(N[C@H]2CC[C@H](N)C2)n2ncc(Cl)c2n1` [Compound 76] reads 1 to 500 nM; that for `CC(C)c1cc(N[C@@H]2CC[C@@H](NC=O)C2)n2nccc2n1` [Compound 137], 1 to 500 nM. For `N[C@H]1CC[C@H](Nc2cc(Nc3cccc4ccccc34)nc3ccnn23)C1` [Compound 171], the IC50 lay within 1 to 500 nM. `N[C@H]1CC[C@H](Nc2cc(-c3ccc(F)cc3)nc3ccnn23)C1` [Compound 107]: the IC50 was in the range of 1 to 500 nM. Regarding `N[C@H]1CC[C@H](Nc2cc(C3=CCOC3)nc3ccnn23)C1` [Compound 126], the IC50 lay in the range of 501 to 1000 nM. The figure for `CN/C(=N/C#N)N[C@@H]1CC[C@@H](Nc2cc(C(C)C)nc3ccnn23)C1` [Compound 154] is 1 to 500 nM; for `N[C@H]1CC[C@H](Nc2cc(C3=CCCCC3)nc3ccnn23)C1` [Compound 109] it is 1 to 500 nM; for `N[C@H]1CC[C@H](Nc2cc(-c3ccc4c(c3)OCO4)nc3c(Cl)cnn23)C1` [Compound 195] it is 1 to 500 nM. The result for `N[C@H]1CC[C@H](Nc2cc(N3CCOCC3)nc3ccnn23)C1` [Compound 163] reads 1 to 500 nM; that for `N[C@H]1CC[C@H](Nc2cc(-c3ccc(C4CC4)cc3)nc3ccnn23)C1` [Compound 114], 1 to 500 nM.

As for `N[C@H]1CC[C@H](Nc2cc(-c3ccc(C4CC4)cc3)nc3ccnn23)C1` [Compound 205], the IC50 is 1 to 500 nM. The result for `N[C@H]1CC[C@H](Nc2cc(-c3cccc(Cl)c3)nc3ccnn23)C1` [Compound 166] reads 1 to 500 nM; that for `CC(C)OC(=O)N[C@@H]1CC[C@@H](Nc2cc(C(C)C)nc3c(Cl)cnn23)C1` [Compound 159], 501 to 1000 nM; that for `CCC(C)c1cc(N[C@@H]2CC[C@@H](NC=O)C2)n2nccc2n1` (stereo partly drawn) [Compound 52], 1 to 500 nM. The result for `N[C@H]1CC[C@H](Nc2cc(C#Cc3ccccc3)nc3ccnn23)C1` [Compound 118] reads 1 to 500 nM; that for `CC(C)c1cc(N[C@H]2CC[C@H](N)C2)n2nc(N)cc2n1` [Compound 183], greater than 1000 nM. The result for `CCN(CC)c1cc(N[C@H]2CC[C@H](N)C2)n2nccc2n1` [Compound 79] reads 1 to 500 nM; that for `CCc1cc(N[C@H]2CC[C@H](N)C2)n2nccc2n1` [Compound 138], 1 to 500 nM. As to `COC(=O)N[C@H]1CC[C@H](Nc2cc(C3CC3)nc3ccnn23)C1` [Compound 180], the IC50 was greater than 1000 nM. The figure for `CC(C)c1ccc(-c2cc(N[C@H]3CC[C@H](N)C3)n3nccc3n2)cc1` [Compound 199] is 1 to 500 nM; for `N[C@H]1CC[C@H](Nc2cc(-c3cccc4ccccc34)nc3ccnn23)C1` [Compound 172] it is 1 to 500 nM. The figure for `CCC(CC)c1cc(N[C@H]2CC[C@H](NC(=O)c3cnc(C)cn3)C2)n2nccc2n1` [Compound 57] is 1 to 500 nM.

With `COc1cc(C)cc(-c2cc(N[C@H]3CC[C@H](N)C3)n3nccc3n2)c1` [Compound 70], the IC50 fell in the range of 1 to 500 nM. `CN(Cc1ccccc1)c1cc(N[C@H]2CC[C@H](N)C2)n2nccc2n1` [Compound 97]: the IC50 was 1 to 500 nM. The result for `Cc1cc(-c2cc(N[C@H]3CC[C@H](N)C3)n3nccc3n2)ccn1` [Compound 100] reads 1 to 500 nM.
